Measured values as given in patent US9766247B2, “Rapid method to analyze ubiquitin-proteasome activity and to screen for ubiquitin-proteasome inhibitor” (KOREA INSTITUTE OF SCIENCE AND TECHNOLOGY, priority 2014, dated 2017).
Residues, ends and D or L forms follow the SMILES beside them. *: point of attachment. Cbz = O=C(OCc1ccccc1)*

Each molecule was assayed on ubiquitin-proteasome (assay: Quantification of GFP-RPN1 fusion protein accumulated by proteasome inhibitor (dual LIF CE system)). Conditions: HEK 293T cells transfected with EGFP-RPN1 and DsRed plasmid vectors; about 0 to about 20 μM inhibitor, two hours; GFP-RPN1 peak height by CE-dual LIF; FIGS. 5a to 5c.
Type: cell-based, human
Method: To monitor a ubiquitin-proteasome-dependent protein RPN1 (ribophorin I), a plasmid vector enabling to express a fusion protein including a green fluorescent protein (GFP) and RPN1 was prepared. Specifically, to induce rapid lysis of a human RPN1 protein, a wild type RPN1 polynucleotide (SEQ ID NO: 2) encoding a wild type human RPN1 protein (SEQ ID NO: 1) was used to prepare a mutant RPN-I^N299T polynucleotide (SEQ ID NO: 4) encoding a mutant RPN-I^N299T protein (SEQ ID NO: 3). The mutant RPN-I^N299T polynucleotide (SEQ ID NO: 4) was cloned into a pEGFP-C1 plasmid vector (Clontech Laboratories Inc.) to prepare a pEGFP-RPN1^N299T plasmid which enables expression of a fusion protein including a GFP protein and the RPN1^N299T protein.
On the other hand, a plasmid vector expressing a red fluorescent protein (RFP) as a ubiquitin-proteasome-independent protein which is not lysed by a ubiquitin-proteasome was prepared. Specifically, a pDs-Red2-Express-N1 plasmid vector (Clontech Laboratories Inc.) which enables expression of a Discosoma species RFP (DsRed) was prepared.
As host cells, human embryonic kidney (HEK) 293T cells were cultured in a DMEM (Dulbecco's Modified Eagle's Medium) (Gibco/BRL) including 10% (v/v) fetal bovine serum (FBS) and 1% (v/v) penicillin-streptomycin (Gibco/BRL) at a temperature of 37° C. under the atmosphere of 5% CO2. During the culturing, the medium was replaced with new medium every second day. […]
Subsequently, the supernatant which was the cell lysate was obtained as described in Example 1.2. As described in Example 1.3, a capillary electrophoresis was performed with the obtained supernatant under the electrophoresis conditions of 100 mM Tris-CHES and 10 mM SDS (pH 9.0) by using a dual LIF CE system including an uncoated capillary having an inner diameter of 75 μm and a length of 50 cm to quantify the peak height. […]

SMILES	amount of the accumulated proteins (relative intensity of the peaks)
CC(C)C[C@@H](C=O)NC(=O)[C@H](CC(C)C)NC(=O)[C@H](CC(C)C)NC(=O)OCc1ccccc1 [MG132] (Cbz-Leu-Leu-Leu-aldehyde)	varied according to the increase of the concentrations
CC(C)C[C@H](NC(=O)[C@H](Cc1ccccc1)NC(=O)c1cnccn1)B(O)O [bortezomib]	varied according to the increase of the concentrations
CC(C)C[C@H](NC(=O)[C@H](CCc1ccccc1)NC(=O)CN1CCOCC1)C(=O)N[C@@H](Cc1ccccc1)C(=O)N[C@@H](CC(C)C)C(=O)[C@@]1(C)CO1 [carfilzomib]	varied according to the increase of the concentrations
